Reference: patent publication US20220372013A2, “PIPERIDINE-2,6-DIONE DERIVATIVES AND CROHN'S DISEASE TREATING” (Tianjin Hemay Pharmaceutical Sci-Tech Co., Ltd, priority 2016, published 2022)
Marks after values point to notes of the source that are not given here.

Legend:
[1] = test system: DNBS-Induced Inflammatory Bowel Disease Models in Rats; assay: Biological Example 3: DNBS-induced inflammatory bowel disease models in rats; type: in vivo, Wistar rats; settings: 30 mg/Kg i.g. qd × 7; for Adhesion Degree of Colon / Colon weight to length ratio / Inhibitory rate of colon adhesion / Inhibitory rate of ulcer area of colon / Inhibitory rate of weight increase per length / Ulcer area of colon: day 7; for Body weight: Mean ± SD
Procedure: 102 male Wistar rats were fasted for 40 hours. A 5% glucose injection (10 mL/Kg) was administered subcutaneously during fasting. 72 rats with normal conditions and moderate body weight were selected from the fasting rats. The animals were randomly divided into 9 groups according to the body weight (see Table 9. Grouped Table).
The animals were anesthetized with ether after 40 hours fasting. A specially made gavage device was slowly inserted into the enteric cavity at 8 cm from the anus. The model control group and each test group were administered with 0.5 mL of 50 mg/mL DNBS in 30% ethanol solution. The normal control group was administered with 0.5 mL of 30% ethanol solution. The animals were inverted in anesthesia for 15 minutes. The day when the model was prepared was day 0 of the experiment. After 4 hours of DNBS induction, the corresponding drug or the corresponding volume of 1% CMC-Na was administered once per day. On day 7 of the experiment, the animals were euthanized to score the colon adhesion degree, measure the length of colon and ulcer area, weigh colon and calculate the colon weight to length ratio.
One-way ANOVA analysis of the length of colon and colon weight per length of rats was performed by SPSS22. Statistical analyses between groups were performed. The adhesion degree was scored. Mann-Whitney U non-parametric test was performed on ulcer area. Statistical analyses between groups were performed.
Calculation Formula of Inhibitory rate of weight increase per length: (Colon weight to length ratio in model group−Colon weight to length ratio in administration group)/(Colon weight to length ratio in model group−Colon weight to length ratio in blank group)

mice = assay: Biological Example 5: acute toxicity experiment of single oral administration in mice; type: in vivo; settings: single oral 1000 mg/Kg, Mean ± SD
How it was run: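 Fasted ICR mice (19-21 g, three females and three males per group) received a single oral dose of 1000 mg/Kg, given first to one mouse of each sex and then to the remaining four. Behaviour, nervous and autonomic signs, and deaths were recorded over 0-15 min. Animals were then observed for 7 days with daily body weight.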

Row | Structure (SMILES) | Adhesion Degree of Colon [1] [point] | Colon weight to length ratio [1] [mg/cm] | Inhibitory rate of colon adhesion [1] | Inhibitory rate of ulcer area of colon [1] | Inhibitory rate of weight increase per length [1] | Ulcer area of colon [1] | Body weight ([1]; Day 0) [g] | Body weight ([1]; Day 1) [g] | Body weight ([1]; Day 2) [g] | Body weight ([1]; Day 3) [g] | Body weight ([1]; Day 4) [g] | Body weight ([1]; Day 5) [g] | Body weight ([1]; Day 6) [g] | Body weight ([1]; Day 7) [g] | Daily Body Weight (mice; Female mice, Day 1) [g] | Daily Body Weight (mice; Female mice, Day 2) [g] | Daily Body Weight (mice; Female mice, Day 3) [g] | Daily Body Weight (mice; Female mice, Day 4) [g] | Daily Body Weight (mice; Female mice, Day 5) [g] | Daily Body Weight (mice; Female mice, Day 6) [g] | further results
1 | Nc1cccc2c1C(=O)N(C1CCC(=O)N(CCO)C1=O)C2=O (stereo not drawn) [Example 6, 4-amino-2-(1-(2-hydroxyethyl)-2,6-dioxopiperidin-3-yl)isoindolin-1,3-dione] | 0.6 ± 0.5 | 99 ± 21 | 64.7# % | 89.0# % | 70.9## % | 0.34 ± 0.54# cm^2 | 137.5 ± 5.6 | 138.1 ± 8.0 | 141.8 ± 13.1 | 147.4 ± 16.5 | 154.5 ± 17.7 | 164.2 ± 16.2 | 169.3 ± 18.4 | 180.9 ± 15.5 | 17.5 ± 0.9 | 21.5 ± 0.9 | 21.6 ± 1.3 | 22.0 ± 1.2 | 22.3 ± 1.9 | 22.4 ± 2.3 | Daily Body Weight (mice; Female mice, Day 7): 22.9 ± 2.0 g; Daily Body Weight (mice; Male mice, Day 1): 18.4 ± 0.6 g; Daily Body Weight (mice; Male mice, Day 2): 21.5 ± 0.9 g; Daily Body Weight (mice; Male mice, Day 3): 21.6 ± 1.3 g; Daily Body Weight (mice; Male mice, Day 4): 25.5 ± 0.5 g; Daily Body Weight (mice; Male mice, Day 5): 25.9 ± 0.9 g; Daily Body Weight (mice; Male mice, Day 6): 26.9 ± 1.1 g; Daily Body Weight (mice; Male mice, Day 7): 27.1 ± 1.1 g
2 | COCCN1C(=O)CCC(N2C(=O)c3ccc(F)cc3C2=O)C1=O (stereo not drawn) [Example 21, 5-fluoro-2-(1-(2-methoxyethyl)-2,6-dioxopiperidin-3-yl)-isoindolin-1,3-dione] | 0.9 ± 0.7 | 104 ± 17 | 47.1# % | 70.0% | 64.6## % | 0.93 ± 1.52 cm^2 | 135.6 ± 6.9 | 134.4 ± 6.8 | 133.9 ± 6.8 | 138.7 ± 6.8 | 146.4 ± 6.9 | 157.9 ± 8.9 | 168.3 ± 4.6 | 173.5 ± 7.4 |  |  |  |  |  |  | 
3 | COCCCN1C(=O)CCC(N2C(=O)c3cccc(NC(C)=O)c3C2=O)C1=O (stereo not drawn) [Example 16, 4-acetylamino-2-(1-(3-methoxypropyl)-2,6-dioxopiperidin-3-yl)isoindolin-1,3-dione] | 1.1 ± 0.8 | 114 ± 23 | 35.3% | 72.8# % | 51.9# % | 0.84 ± 1.25# cm^2 | 137.3 ± 1.7 | 135.9 ± 3.7 | 137.6 ± 7.0 | 145.0 ± 9.2 | 155.2 ± 10.9 | 166.8 ± 10.2 | 171.5 ± 15.1 | 184.3 ± 13.8 |  |  |  |  |  |  | 
4 | COCCN1C(=O)CCC(N2C(=O)c3ccc(N)cc3C2=O)C1=O (stereo not drawn) [Example 7, 5-amino-2-(1-(2-methoxyethyl)-2,6-dioxopiperidin-3-yl)isoindolin-1,3-dione] | 0.9 ± 0.8 | 127 ± 52 | 47.1# % | 75.1% | 35.4% | 0.77 ± 1.05 cm^2 | 136.1 ± 2.5 | 136.7 ± 3.7 | 137.0 ± 8.7 | 141.6 ± 11.9 | 148.2 ± 12.7 | 159.2 ± 13.2 | 168.0 ± 15.7 | 173.5 ± 18.5 |  |  |  |  |  |  | 
5 | COCCCCN1C(=O)CCC(N2C(=O)c3cccc(N)c3C2=O)C1=O (stereo not drawn) [Example 22, 4-amino-2-(1-(4-methoxybutyl)-2,6-dioxopiperidin-3-yl)isoindolin-1,3-dione] | 0.8 ± 0.9 | 112 ± 40 | 52.9# % | 40.5% | 54.4# % | 1.84 ± 2.59 cm^2 | 137.5 ± 7.2 | 137.0 ± 9.0 | 139.7 ± 11.2 | 144.1 ± 12.7 | 152.6 ± 20.0 | 162.7 ± 19.0 | 170.5 ± 17.7 | 178.3 ± 20.7 | 18.5 ± 0.6 | 21.8 ± 0.3 | 22.9 ± 0.4 | 24.0 ± 1.0 | 25.0 ± 0.4 | 25.3 ± 0.6 | Daily Body Weight (mice; Female mice, Day 7): 25.6 ± 0.2 g; Daily Body Weight (mice; Male mice, Day 1): 17.1 ± 0.3 g; Daily Body Weight (mice; Male mice, Day 2): 22.9 ± 0.8 g; Daily Body Weight (mice; Male mice, Day 3): 23.5 ± 0.9 g; Daily Body Weight (mice; Male mice, Day 4): 25.2 ± 0.5 g; Daily Body Weight (mice; Male mice, Day 5): 27.2 ± 1.9 g; Daily Body Weight (mice; Male mice, Day 6): 27.1 ± 1.8 g; Daily Body Weight (mice; Male mice, Day 7): 27.4 ± 1.9 g
6 | COCCN1C(=O)CCC(N2C(=O)c3cccc(F)c3C2=O)C1=O (stereo not drawn) [Example 4, 4-fluoro-2-(1-(2-methoxyethyl)-2,6-dioxopiperidin-3-yl)isoindolin-1,3-dione] | 0.6 ± 0.7 | 125 ± 34 | 64.7## % | 81.2# % | 38.0% | 0.58 ± 0.78# cm^2 | 137.1 ± 6.2 | 136.2 ± 4.1 | 138.2 ± 6.9 | 141.1 ± 8.8 | 151.8 ± 13.4 | 162.5 ± 13.0 | 170.8 ± 13.0 | 181.0 ± 12.2 | 18.4 ± 0.4 | 21.8 ± 0.5 | 23.2 ± 0.6 | 23.5 ± 1.2 | 24.7 ± 0.9 | 24.2 ± 1.2 | Daily Body Weight (mice; Female mice, Day 7): 24.0 ± 0.8 g; Daily Body Weight (mice; Male mice, Day 1): 17.6 ± 0.2 g; Daily Body Weight (mice; Male mice, Day 2): 22.2 ± 0.3 g; Daily Body Weight (mice; Male mice, Day 3): 23.6 ± 0.6 g; Daily Body Weight (mice; Male mice, Day 4): 24.7 ± 0.6 g; Daily Body Weight (mice; Male mice, Day 5): 26.7 ± 0.4 g; Daily Body Weight (mice; Male mice, Day 6): 27.6 ± 0.8 g; Daily Body Weight (mice; Male mice, Day 7): 28.2 ± 0.1 g
